Experimental data reported in patent publication US20180312493A1, “Antibiotic Compounds, Pharmaceutical Formulations Thereof And Methods And Uses Therefor” (Simon Fraser University, priority 2015, published 2018).
≈ marks a conversion by molar mass, not a printed value. Read-outs that look alike come from different tables or passages of the source.

What was measured:
K. pneumoniae (C238) = assay: In vitro susceptibility, broth microdilution (MIC); assay type: cell-based; conditions: Klebsiella pneumoniae; K. pneumoniae (C238); read-out: Antimicrobial activity (MIC) K. pneumoniae
How it was run: (§1)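 CLSI 2-fold serial broth microdilution; K. pneumoniae C238 grown in L-broth, S. aureus ATCC 29213 in Mueller Hinton broth, plates incubated 18–24 h at 37 °C. MIC taken as lowest concentration giving complete growth inhibition by OD600 versus compound-free wells, background-subtracted.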

S. aureus (ATCC29213) = assay: In vitro susceptibility, broth microdilution (MIC); assay type: cell-based; conditions: Staphylococcus aureus
How it was run: as §1

MRSA Pyk = target: T1, MRSA Pyk (Staphylococcus aureus, UniProt Q6GG09); assay: MRSA pyruvate kinase (PK) activity, continuous LDH-coupled assay; assay type: biochemical, methicillin resistant S. aureus (MRSA252)
T1 construct: made in house; host or cells: E. coli BL-21 (DE3)
How it was run: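 Activity monitored continuously as absorbance change at 340 nm from NADH oxidation via coupled lactate dehydrogenase, reactions started with 15 nM recombinant His-tagged PK (MRSA or human isoform) and run at 30° C for up to 5 min. Ki derived by varying inhibitor (0-400 nM) and PEP (2-20 mM) at 2 mM ADP; IC50 by four-parameter fitting.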

VRE#2 (2010A) = assay: In vitro susceptibility, broth microdilution (MIC); assay type: cell-based, vancomycin resistant Enterococci; conditions: read-out: Antimicrobial activity (MIC) VRE#2
Text: (§2) Epidemic methicillin resistant S. aureus (MRSA) strain sequenced at the Sanger Centre (MRSA252, NRS71) was obtained from NARSA (Network on Antimicrobial Resistance in S. aureus). Methicillin sensitive S. aureus (ATCC 29213 and 25923), methicillin resistant S. aureus (ATCC BAA-1762), and Salmonella typhimurium (ATCC BAA-185) were obtained from ATCC, The Global Bioresource Center. Acinetobacter baumannii (ATCC 19606 and ATCC 17978), Klebsiella pneumonia (C238), vancomycin resistant Enterococci #2 (2010A) (VRE#2), MRSA (USA400, MW2) and Pseudomonas aeruginosa (PA0-1) were obtained from the laboratory of Dr B. B. Finlay at the University of British Columbia (Vancouver, Canada).
(§3) The antimicrobial activities of PK inhibitor candidates were determined using the 96-well microtiter standard 2-fold serial broth microdilution method as described by CLSI (formerly NCCLS) with the various gram-positive and gram-negative bacteria species mentioned above. Bacteria from a single colony were grown, overnight in either BHI Broth (VRE), mueller hinton broth (S. aureus 29213; MRSA USA400, A. baumannii 19606, MRSA BAA-1762) or L-broth (P. aeruginosa, S. typhimurium, K. pneumonia and A. baumannii 17978). Each compound was prepared in DMSO with 2-fold serial dilutions to give a final concentration of, 0.031 to 64 μg/ml. 10 μl of the compound solution was then added, in duplicate, to either, 190 μl of cation adjusted mueller hinton broth (CAMHB) or 190 μl CAMHB containing ˜2.5×10^5 CFU/ml of bacteria (final compound concentration 0.031 to 64 μg/ml). Culture plates were incubated for 18-24 h at 37° C., and optical density at 600 nm (OD600) was measured using a Benchmark Plus™ microplate spectrophotometer (Bio-Rad™). The absorbance control values for the series containing CAMHB and inhibitor were subtracted as background from the corresponding infected wells. Minimal inhibitory concentration (MIC) was defined as the lowest concentration of test compound leading to complete inhibition of cell growth in relation to compound-free control wells as determined by optical density. Vancomycin, methicillin and ciprofloxicin were used as reference compounds. All assays were run in triplicate or duplicate. Experiments were replicated at least twice to verify reproducibility using the above conditions.

MRSA (ATCC BAA-1762) = assay: In vitro susceptibility, broth microdilution (MIC); assay type: cell-based, methicillin resistant S. aureus; conditions: Staphylococcus aureus, read-out: Antimicrobial activity (MIC) MRSA ATCC BAA1762
Text: as §2, §3

[1] = S. aureus ATCC29213, 18-24 h, 37 C, read-out: Antimicrobial activity (MIC) S. aureus ATCC29213

| MIC (K. pneumoniae (C238)) [µg/mL] | SMILES | MIC (S. aureus (ATCC29213); [1]) [µg/mL] | IC50 (MRSA Pyk) [nM] | MIC (VRE#2 (2010A); VRE#2 (2010A)) [µg/mL] | MIC (MRSA (ATCC BAA-1762); MRSA ATCC BAA-1762) [µg/mL] | MIC (S. aureus (ATCC29213); ATCC29213, read-out: Antimicrobial activity (MIC) S. aureus ATCC29213) [µg/mL] | MIC (VRE#2 (2010A)) [µg/mL] | MIC (MRSA (ATCC BAA-1762)) [µg/mL] |
| --- | --- | --- | --- | --- | --- | --- | --- | --- |
| > 64 | O=C(NCCCN1CCOCC1)c1c(/C=C/c2ccc(Cl)cc2)[nH]c2cc(Br)ccc12 [Compound 48, (E)-6-Bromo-2-(4-chlorostyryl)-N-(3-morpholinopropyl)-1H-indole-3-carboxamide] | > 64 |  |  |  |  |  |  |
|  | CCCC(=O)OC1CCN(CCNC(=O)c2c(/C=C/c3ccc(Cl)cc3)[nH]c3cc(Br)ccc23)CC1 [Compound 57, (E)-1-(2-(6-Bromo-2-(4-chlorostyryl)-1H-indole-3-carboxamido)ethyl)piperidin-4-yl Butyrate] | > 64 | 100 to 1000 | > 64 |  |  |  |  |
|  | O=C1NCCn2c(cc3cc(Cl)ccc32)-c2[nH]c3cc(Br)ccc3c21 [Compound 74, 12-Bromo-2-chloro-7,8-dihydro-6H-[1,4]diazocino[1,8-a:7,6-b′]diindol-9(14H)-one] | 32 (≈ 77.2 µM) | < 100 | 64 (≈ 154 µM) |  |  |  |  |
| > 64 | CNC(=O)Cc1c(CCc2ccc(Cl)cc2)[nH]c2cc(Br)ccc12 [Compound 91, 2-(6-Bromo-2-(4-chlorophenethyl)-1H-indol-3-yl)-N-methylacetamide] | > 64 |  |  |  |  |  |  |
|  | Nc1c(/C=C/c2ccc(Cl)cc2)[nH]c2cc(Br)ccc12 [Compound 92, (E)-6-bromo-2-(4-chlorostyryl)-1H-indol-3-amine] | 64 (≈ 184 µM) | < 100 | 32 (≈ 92 µM) |  |  |  |  |
| 8 (≈ 23 µM) | O=C(Nc1ccccc1)Nc1nc2cc(Br)ccc2s1 [Compound 99, 1-(5-bromobenzo[d]thiazol-2-yl)-3-phenylurea] | 1 (≈ 2.87 µM) |  |  |  |  |  |  |
| > 64 | O=C(Nc1ccccc1)Nc1nc2ccc(Br)cc2s1 [Compound 100, 1-(6-bromobenzo[d]thiazol-2-yl)-3-phenylurea] | > 64 |  |  |  |  |  |  |
| > 64 | O=C(Cc1ccc(Cl)cc1)Nc1nc2ccc(Br)cc2s1 [Compound 109, N-(6-bromobenzo[d]thiazol-2-yl)-2-(4-chlorophenyl)acetamide] | > 64 |  |  |  |  |  |  |
| > 64 | CN(C)CCn1c(-c2ccc(Cl)cc2)nc2[nH]c3cc(Br)ccc3c2c1=O [Compound 111, 7-bromo-2-(4-chlorophenyl)-3-(2-(dimethylamino)ethyl)-3H-pyrimido[4,5-b]indol-4(9H)-one] | > 64 |  |  |  |  |  |  |
| > 64 | FC(F)(F)c1ccc2sc(/C=C/c3ccc(Cl)cc3)nc2c1 [Compound 115, (E)-2-(4-chlorostyryl)-5-(trifluoromethyl)benzo[d]thiazole] | > 64 |  |  |  |  |  |  |
|  | C[C@@H]1CN(CCNC(=O)c2c(-c3cc4cc(Cl)ccc4[nH]3)[nH]c3cc(Br)ccc23)[C@@H](C)CN1C [Compound 122, 6-Bromo-5′-chloro-N-(2-((2S,5R)-2,4,5-trimethylpiperazin-1-yl)ethyl)-1H,1′H-[2,2′-biindole]-3-carboxamide] | 8 (≈ 14.7 µM) | < 100 | 8 (≈ 14.7 µM) | 8 (≈ 14.7 µM) |  |  |  |
|  | COCCC1CCCN1CCNC(=O)c1c(-c2cc3cc(Cl)ccc3[nH]2)[nH]c2cc(Br)ccc12 (stereo not drawn) [Compound 123, 6-Bromo-5′-chloro-N-(2-(2-(2-methoxyethyl)pyrrolidin-1-yl)ethyl)-1H,1′H-[2,2′-biindole]-3-carboxamide] | 8 (≈ 14.7 µM) | < 100 | 8 (≈ 14.7 µM) | 8 (≈ 14.7 µM) |  |  |  |
|  | COCCN1CCN(CCNC(=O)c2c(-c3cc4cc(Cl)ccc4[nH]3)[nH]c3cc(Br)ccc23)CC1 [Compound 129, 6-bromo-5′-chloro-N-(2-(4-(2-methoxyethyl)piperazin-1-yl)ethyl)-1H,1′H-2,2′-biindole-3-carboxamide] | 16 (≈ 28.6 µM) | < 100 | 16 (≈ 28.6 µM) | 16 (≈ 28.6 µM) |  |  |  |
|  | CN1CCN(CCNC(=O)c2c(-c3cc4cc(Cl)ccc4[nH]3)[nH]c3cc(Br)ccc23)C(c2ccccc2)C1 (stereo not drawn) [Compound 139, 6-Bromo-5′-chloro-N-(2-(4-methyl-2-phenylpiperazin-1-yl)ethyl)-1H,1′H-[2,2′-biindole]-3-carboxamide] | 4 (≈ 6.77 µM) | < 100 | 8 (≈ 13.5 µM) | 8 (≈ 13.5 µM) |  |  |  |
| > 64 | COc1cc2[nH]c(-c3cc4ccc(Br)cc4[nH]3)cc2cc1Cl [Compound 140, 6′-Bromo-5-chloro-6-methoxy-1H,1′H-2,2′-biindole] | > 64 |  |  |  |  |  |  |
|  | O=C(Nc1ccc(Cl)cc1)Nc1nc2cc(Br)ccc2s1 [Compound 141, 1-(5-bromobenzo[d]thiazol-2-yl)-3-(4-chlorophenyl)urea] | 0.5 (≈ 1.31 µM) |  |  | 0.5 (≈ 1.31 µM) |  |  |  |
|  | O=C(NCCC[n+]1ccccc1)c1c(-c2cc3cc(Cl)ccc3[nH]2)[nH]c2cc(Br)ccc12 [Compound 144, 1-(3-(6-bromo-5′-chloro-1H,1′H-[2,2′-biindole]-3-carboxamido)propyl)pyridin-1-ium] | 8 | < 100 | 16 | 16 |  |  |  |
|  | Cc1ccc2sc(NC(=O)Nc3ccc(Cl)cc3)nc2c1 [Compound 170, 1-(4-chlorophenyl)-3-(5-methylbenzo[d]thiazol-2-yl)urea] | 4 (≈ 12.6 µM) |  |  | 2 (≈ 6.29 µM) |  |  |  |
|  | CC(=O)Nc1nc2cc(Br)ccc2s1 [Compound 175, N-(5-bromobenzo[d]thiazol-2-yl)acetamide] | 32 (≈ 118 µM) |  | 32 (≈ 118 µM) | 16 (≈ 59 µM) |  |  |  |
|  | COC(=O)c1c(NS(=O)(=O)c2ccc(Cl)cc2)[nH]c2cc(Br)ccc12 [Compound 182, Methyl 6-bromo-2-((4-chlorophenyl)sulfonamido)-1H-indole-3-carboxylate] | 8 (≈ 18 µM) |  | 64 (≈ 144 µM) | 0.5 (≈ 1.13 µM) |  |  |  |
|  | CN(C)CCc1c(-c2nc3ccc(Cl)cc3o2)[nH]c2cc(Br)ccc12 [Compound 203, 2-(6-Bromo-2-(6-chlorobenzo[d]oxazol-2-yl)-1H-indol-3-yl)-N,N-dimethylethan-1-amine] |  | < 100 |  |  | 8 (≈ 19.1 µM) | 16 (≈ 38.2 µM) | 8 (≈ 19.1 µM) |
|  | CC(C)(C)OC(=O)N1CCN(C(=O)c2c(-c3cc4cc(Cl)ccc4[nH]3)[nH]c3cc(Br)ccc23)C(C(=O)O)C1 (stereo not drawn) [Compound 224, 1-(6-bromo-5′-chloro-1H,1′H-[2,2′-biindole]-3-carbonyl)-4-(tert-butoxycarbonyl)piperazine-2-carboxylic Acid] | 32 (≈ 53.2 µM) | < 100 | 32 (≈ 53.2 µM) | 32 (≈ 53.2 µM) |  |  |  |

| SMILES | MIC (K. pneumoniae (C238)) [µg/mL] | MIC (S. aureus (ATCC29213); [1]) [µg/mL] | IC50 (MRSA Pyk) [nM] | MIC (VRE#2 (2010A); VRE#2 (2010A)) [µg/mL] | MIC (MRSA (ATCC BAA-1762); MRSA ATCC BAA-1762) [µg/mL] | MIC (S. aureus (ATCC29213); ATCC29213, read-out: Antimicrobial activity (MIC) S. aureus ATCC29213) [µg/mL] | MIC (VRE#2 (2010A)) [µg/mL] | MIC (MRSA (ATCC BAA-1762)) [µg/mL] |
| --- | --- | --- | --- | --- | --- | --- | --- | --- |
| O=C(NCCCCN1CCOCC1)c1c(/C=C/c2ccc(Cl)cc2)[nH]c2cc(Br)ccc12 [Compound 45, (E)-6-Bromo-2-(4-chlorostyryl)-N-(4-morpholinobutyl)-1H-indole-3-carboxamide] | 32 (≈ 61.9 µM) | > 64 | < 100 |  |  |  |  |  |
| O=C(NCCc1ccccn1)C(=O)c1c(/C=C/c2ccc(Cl)cc2)[nH]c2cc(Br)ccc12 [Compound 88, (E)-2-(6-bromo-2-(4-chlorostyryl)-1H-indol-3-yl)-2-oxo-N-(2-(pyridin-2-yl)ethyl)acetamide] | > 64 | > 64 | 100 to 1000 |  |  |  |  |  |
| CNC(=O)C(=O)c1c(CCc2ccc(Cl)cc2)[nH]c2cc(Br)ccc12 [Compound 89, 2-(6-bromo-2-(4-chlorophenethyl)-1H-indol-3-yl)-N-methyl-2-oxoacetamide] | > 64 | > 64 | > 1000 |  |  |  |  |  |
| CNC(=O)C(O)c1c(/C=C/c2ccc(Cl)cc2)[nH]c2cc(Br)ccc12 (stereo not drawn) [Compound 90, (E)-2-(6-bromo-2-(4-chlorostyryl)-1H-indol-3-yl)-2-hydroxy-N-methylacetamide] | > 64 | > 64 | 100 to 1000 |  |  |  |  |  |
